According to ChEMBL document CHEMBL1201862, “PubChem BioAssay data set” (2004):
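These data come from cells grown in 96-well plates and exposed to compound for 48 hours at five concentrations. At the GI50, growth is halved.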 Calls of active or inactive are those of the source. Rule as the data show it: active = GI50 up to about 1.1 µM and inactive = higher.

Tests used:
Test in all cases: growth of human tumour cells (NCI), 48 h
[1] = system: 786-0
[2] = system: A498
[3] = system: A549
[4] = system: ACHN
[5] = system: BT-549
[6] = system: CAKI-1
[7] = system: CCRF-CEM
[8] = system: COLO 205
[9] = system: DLD-1
[10] = system: DMS-114
[11] = system: DMS-273
[12] = system: DU-145
[13] = system: EKVX
[14] = system: HCC 2998
[15] = system: HCT-116
[16] = system: HCT-15
[17] = system: HL-60
[18] = system: HOP-18
[19] = system: HOP-62
[20] = system: HOP-92
[21] = system: HT-29
[22] = system: Hs-578T
[23] = system: IGROV-1
[24] = system: K562
[25] = system: KM-20L2
[26] = system: KM12
[27] = system: LOX IMVI
[28] = system: LXFL 529
[29] = system: M14
[30] = system: M19-MEL
[31] = system: MCF7
[32] = system: MDA-MB-231
[33] = system: MDA-MB-435
[34] = system: MDA-N
[35] = system: MOLT-4
[36] = system: Malme-3M
[37] = system: NCI-H226
[38] = system: NCI-H23
[39] = system: NCI-H460
[40] = system: NCI-H522
[41] = system: NCI/ADR-RES
[42] = system: OVCAR-3
[43] = system: OVCAR-4
[44] = system: OVCAR-5
[45] = system: OVCAR-8
[46] = system: PC-3
[47] = system: RPMI-8226
[48] = system: RXF 393
[49] = system: RXF 631
[50] = system: SF-268
[51] = system: SF-295
[52] = system: SF-539
[53] = system: SK-MEL-28
[54] = system: SK-MEL-2
[55] = system: SK-MEL-5
[56] = system: SK-OV-3
[57] = system: SN12C
[58] = system: SNB-19
[59] = system: SNB-75
[60] = system: SNB-78
[61] = system: SR
[62] = system: SW-620
[63] = system: T47D
[64] = system: TK-10
[65] = system: U-251
[66] = system: UACC-257
[67] = system: UACC-62
[68] = system: UO-31
[69] = system: XF498

For CS(=O)(=O)Nc1ccc(Nc2c3ccccc3nc3ccccc23)cc1, the GI50 [1] was 3.1 µM (inactive), the GI50 [2] was 3.21 µM (inactive) and the GI50 [3] was 0.325 µM (active). For the same compound, the GI50 [4] was 0.381 µM (active), the GI50 [5] was 11 µM (inactive) and the GI50 [6] was 0.491 µM (active). For the same compound, the GI50 [7] was 0.459 µM (active), the GI50 [8] was 1.69 µM (inactive) and the GI50 [9] was 4.15 µM (inactive). For the same compound, the GI50 [10] was 1.46 µM (inactive), the GI50 [11] was 0.658 µM (active) and the GI50 [12] was 0.355 µM (active). For the same compound, the GI50 [13] was 4.55 µM (inactive), the GI50 [14] was 4.25 µM (inactive) and the GI50 [15] was 1.83 µM (inactive). The GI50 [16] was 2.31 µM, the GI50 [17] was 0.389 µM (active) and the GI50 [18] was 2.82 µM (inactive). For the same compound, the GI50 [19] was 1.08 µM (active), the GI50 [20] was 4.78 µM (inactive) and the GI50 [21] was 4.4 µM (inactive). For the same compound, the GI50 [22] was 6.43 µM (inactive), the GI50 [23] was 2.09 µM (inactive) and the GI50 [24] was 2.23 µM (inactive). For the same compound, the GI50 [25] was 3.06 µM (inactive), the GI50 [26] was 3.13 µM (inactive) and the GI50 [27] was 1.26 µM (inactive). The GI50 [28] was 3.43 µM (inactive), the GI50 [29] was 3.37 µM (inactive) and the GI50 [30] was 2.32 µM (inactive). For the same compound, the GI50 [31] was 1.07 µM (active), the GI50 [32] was 3.56 µM (inactive) and the GI50 [33] was 7.87 µM (inactive). The GI50 [34] was 5.94 µM (inactive), the GI50 [35] was 0.0873 µM (active) and the GI50 [36] was 2.15 µM (inactive). For the same compound, the GI50 [37] was 1.04 µM (active), the GI50 [38] was 4.06 µM (inactive) and the GI50 [39] was 0.112 µM (active). The GI50 [40] was 2.06 µM (inactive), the GI50 [41] was 7.28 µM (inactive) and the GI50 [42] was 4.93 µM (inactive). For the same compound, the GI50 [43] was 4.17 µM (inactive), the GI50 [44] was 4.39 µM (inactive) and the GI50 [45] was 2.77 µM (inactive). For the same compound, the GI50 [46] was 2.62 µM (inactive), the GI50 [47] was 2.04 µM (inactive) and the GI50 [48] was 5.73 µM (inactive). The GI50 [49] was 1.77 µM (inactive), the GI50 [50] was 2.78 µM (inactive) and the GI50 [51] was 1.66 µM (inactive). For the same compound, the GI50 [52] was 3.4 µM (inactive), the GI50 [53] was 4.75 µM (inactive) and the GI50 [54] was 5.16 µM (inactive). For the same compound, the GI50 [55] was 1.71 µM (inactive), the GI50 [56] was 1.89 µM (inactive) and the GI50 [57] was 0.714 µM (active). For the same compound, the GI50 [58] was 2.03 µM (inactive), the GI50 [59] was 3.46 µM (inactive) and the GI50 [60] was 7.83 µM (inactive). The GI50 [61] was 0.0789 µM (active), the GI50 [62] was 1.11 µM (active) and the GI50 [63] was 2.41 µM (inactive). The GI50 [64] was 2.57 µM (inactive), the GI50 [65] was 1.74 µM (inactive) and the GI50 [66] was 1.36 µM (inactive). For the same compound, the GI50 [67] was 1.34 µM (inactive), the GI50 [68] was 2.23 µM (inactive) and the GI50 [69] was 2.6 µM (inactive).
